Like-named read-outs stand apart in the source and are kept apart here.
How the values were obtained:
[1] = system: strain RS112 (his3 deletion alleles); assay: SCC (sister chromatid conversion) intrachromosomal recombination system, deletion alleles of his3; assay type: cell-based, Saccharomyces cerevisiae; settings: for SCC/10^4 cells: strain RS112
From the text: (§1) In the most preferred embodiment it is preferable to grow the cells in a medium which selects against the occurrence of the genome rearrangement to keep the control values as low as possible. In the embodiment described in FIG. 1 it is shown that the LEU2 gene of construct 10 is lost after the genome rearrangement which results in construct 22. Therefore cells containing construct 10, before the rearrangement are able to grow in the absence of leucine in the medium, but cells containing construct 22, after the genome rearrangement are not able to grow in the absence of leucine. After the genome rearrangement cells containing construct 22 are able to grow in the absence of histidine in the medium, but cells containing construct 10 before the genome rearrangement are not able to grow in the absence of histidine. Therefore the selection scheme which was used for Example 3 involves growth of the yeast culture in medium lacking leucine but containing histidine before and during the exposure to the potential carcinogens or other test agents. After the exposure the cells which have undergone genome rearrangement are selected on medium lacking histidine but containing leucine.
(§2) It is preferred that, when the cells are to be grown in the presence of the agent, logarithmic phase cultures are used. In one embodiment, for each of the test strains, a cell suspension of 2×10^6 cells per milliliter-LEU medium be prepared from a logarithmic phase culture pregrown in liquid-LEU medium. The whole mix is aliquoted into portions of 5 milliliter into disposable plastic tubes in the presence of the agent to be tested, the tubes are sealed and shaken continuously for 17 hours.
(§3) After the yeast cells have been exposed to both the agent to be tested and the selection medium under the conditions of the test and have been incubated for some time period of about more than one day preferably at 30 degrees Celsius or any other temperature which allows growth of the yeast cells used, the number of colonies formed by cells which have undergone genome rearrangement are counted and compared with the number of colonies of yeast cells identical in substantially every respect with the exception of not having been exposed to the suspected carcinogenic agent. The rates of genome rearrangement for both the control and experimental samples are then compared.
(§4) Plasmids were constructed as substrates to study intrachromosomal recombination; see an earlier part of the specification and Example 1. The plasmids pRS6 (FIG. 7, construct 108) and pRS11 (FIG. 9, construct 118) both contained an internal fragment of the HIS3 gene as well as one selectable marker (LEU2). pRS11 in addition contained the 2 μm origin of replication to select for the presence of the plasmid after plasmid excision. pRS11FRT-had the FLP recombination site disrupted (see Example 1). Yeast strains RSY6 containing construct 10, RSY11 containing construct 118 and RSY11FRT- (see Example 1) were used. They contained the respective pRS plasmids integrated into the HIS3 gene of strain S35/2-10C giving rise to disruptions of the HIS3 gene construct 10 or analogs to it (FIG. 10). The two resulting his3 deletion alleles (FIG. 10) shared about 400 basepairs of homology and thus could interact with each other by homologous recombination. Reversion of his- to HIS+ occurred at a frequency of about 4×10^-4 in all three strains. All of 100 tested HIS+ revertants of strain RSY6 were leu-. Because of this observation strains used for recombination studies were always pregrown on -LEU medium to prevent growth of HIS+ revertants. Therefore the frequency of HIS+ revertants is a measure of the recombination rate.
(§5) The strain used in this example was RS112 which was obtained by crossing strain RSY6 with strain 428. RSY6 contains the SCC system and was deposited at November 30 under "ATCC designation number 20871" with the American Type Culture Collection of 12301 Parklawn Drive, Rockville, Md. 20852. […]

[2] = system: strain RS112 (heteroalleles ade2-40 and ade2-101); assay: ICC (interchromosomal gene conversion) between heteroalleles ade2-40 and ade2-101; assay type: cell-based, Saccharomyces cerevisiae; settings: for ICC/10^5 cells: strain RS112
Method: as §2
(§6) The strain used in this example was RS112 which was obtained by crossing strain RSY6 with strain 428. RSY6 contains the SCC system and was deposited at November 30 under "ATCC designation number 20871" with the American Type Culture Collection of 12301 Parklawn Drive, Rockville, Md. 20852. Strain 428 was obtained from M. Snyder, Department of Biology, at Yale University, New Haven, Conn. and was used because it contains the mutation his3Δ-200, the construction of which has been described in an article by Struhl entitled "Naturally occurring poly(dA-dT) sequences are upstream promoter elements of constitutive transcription in yeast, published in Proc. Natl. Acad. Sci. USA 82 on pages 8419-8423. Strains containing the his3Δ-200 mutation are readily available to those skilled in the art.
Strain RS112 has the following genotype: [drawing 2]
Values for the intrachromosomal recombination system between deletion alleles of his3 are designated as SCC. Also strain RS112 contained heteroallelic mutations in ade2 so that the frequency of interchromosomal gene conversion (ICC) between heteroalleles in a diploid was determined. ICC was measured as recombination between the heteroalleles ade2-40 and ade2-101 by selecting for ADE+. Values obtained are given to compare the performance of the two systems.
The frequencies for ICC are given in events per 10^5 survivals, and the frequencies for SCC are given in events per 10^4 survivals. It has to be noted that for sister chromatid recombination in mammalian cells the increase even with potent carcinogens is usually less than ten fold and also slight increases have been taken as positive results. For instance an increase in frequency of two fold has been taken to be significant; see a publication by Rudiger et al. entitled "Metabolites of diethylstilbestrol induce sister chromatid exchange in human cultured fibroblasts." published in Nature 281:392-394).

strain RS112 = assay: survival of yeast exposed to agent; assay type: cell-based, Saccharomyces cerevisiae; settings: 1020 min
From the text: (§7) It is preferred to conduct a preliminary experiment to determine those concentrations of the agent to be tested which should be evaluated in the main experiment. Yeast cells are exposed to a wide range of concentrations of the agent to be tested to determine its cytotoxicity.
as §2, §6

Salmonella typhimurium = settings: cited from earlier work
mammalian cells [3] = settings: cited from earlier work
mammalian cells [4] = settings: cited from earlier work; remark: listed apart in the source
mice = settings: cited from earlier work
[5] = cited from earlier work; for carcinogenicity: in vivo
[6] = SCC (sister chromatid conversion) intrachromosomal recombination system, deletion alleles of his3; assay type: cell-based, Saccharomyces cerevisiae; settings: yeast strain rs112; versus untreated control; read-out: induction for SCC / increase in SCC
From the text: as §1, §2, §3, §4, §5

[7] = survival of yeast exposed to agent; assay type: cell-based, Saccharomyces cerevisiae
From the text: as §7, §2, §6

rats = settings: cited from earlier work

Cc1c(N)c(=O)n(-c2ccccc2)n1C [Aminoantipyrine]
SCC/10^4 cells ([1]; 10 mg/ml): 1.02 /10^4 cells
SCC/10^4 cells ([1]; 20 mg/ml): 1.80 /10^4 cells
SCC/10^4 cells ([1]; 40 mg/ml): 25.8 /10^4 cells
ICC/10^5 cells ([2]; 10 mg/ml): 0.75 /10^5 cells
ICC/10^5 cells ([2]; 20 mg/ml): 1.8 /10^5 cells
survival (strain RS112; 10 mg/ml): 97%
survival (strain RS112; 20 mg/ml): 73.3%
survival (strain RS112; 40 mg/ml): 0.89%
Ames Assay result (Salmonella typhimurium): negative
SCE assay result (mammalian cells [3]): negative
chromosomal aberration assay result (mammalian cells [4]): negative
carcinogenicity (mice): bladder carcinogen
carcinogenicity [5]: known carcinogens

CCOS(C)(=O)=O [EMS, ethyl methanesulphonate]
fold induction [6]: 20 to 150
SCC result in words [1]: inducible
SCC/10^4 cells ([1]; 0.02 %): 4.1 /10^4 cells
SCC/10^4 cells ([1]; 0.1 %): 18.1 /10^4 cells
SCC/10^4 cells ([1]; 0.2 %): 25.3 /10^4 cells
ICC result in words [2]: inducible
ICC/10^5 cells ([2]; 0.02 %): 1.3 /10^5 cells
ICC/10^5 cells ([2]; 0.1 %): 15.8 /10^5 cells
ICC/10^5 cells ([2]; 0.2 %): 28.9 /10^5 cells
viability at 17 h ([7]; yeast strain rs112, 0.02 %): 98%
viability at 17 h ([7]; yeast strain rs112, 0.1 %): 91%
viability at 17 h ([7]; yeast strain rs112, 0.2 %): 37%

CCSCC[C@H](N)C(=O)O [Ethionine]
SCC/10^4 cells ([1]; 10 mg/ml): 4.8 /10^4 cells
SCC/10^4 cells ([1]; 20 mg/ml): 5.4 /10^4 cells
ICC/10^5 cells ([2]; 10 mg/ml): 0.77 /10^5 cells
ICC/10^5 cells ([2]; 20 mg/ml): 0.80 /10^5 cells
viability at 17 h ([7]; yeast strain rs112, 10 mg/ml): 79%
viability at 17 h ([7]; yeast strain rs112, 20 mg/ml): 67%
Ames Assay result (Salmonella typhimurium): negative
SCE assay result (mammalian cells [3]): negative
chromosomal aberration assay result (mammalian cells [4]): negative
carcinogenicity [5]: liver carcinogen
carcinogenicity ([5]; listed as ethionine): known carcinogens

C=O [Formaldehyde]
fold induction [6]: ~20
SCC result in words [1]: test positive
SCC/10^4 cells ([1]; 0.015 mg/ml): 3.8 /10^4 cells
SCC/10^4 cells ([1]; 0.03 mg/ml): 7.3 /10^4 cells
SCC/10^4 cells ([1]; 0.05 mg/ml): 29.5 /10^4 cells
SCC/10^4 cells ([1]; 0.07 mg/ml): 40.0 /10^4 cells
ICC result in words [2]: induces ICC
ICC/10^5 cells ([2]; 0.015 mg/ml): 2.5 /10^5 cells
ICC/10^5 cells ([2]; 0.03 mg/ml): 2.1 /10^5 cells
ICC/10^5 cells ([2]; 0.05 mg/ml): 5.4 /10^5 cells
ICC/10^5 cells ([2]; 0.07 mg/ml): 7.1 /10^5 cells
viability at 17 h ([7]; yeast strain rs112, 0.015 mg/ml): 97%
viability at 17 h ([7]; yeast strain rs112, 0.03 mg/ml): 53%
viability at 17 h ([7]; yeast strain rs112, 0.05 mg/ml): 4.2%
viability at 17 h ([7]; yeast strain rs112, 0.07 mg/ml): 2.2%
Ames Assay result (Salmonella typhimurium): negative
carcinogenicity (rats): causes nasal cancer in rats
carcinogenicity [5]: known carcinogen
tumor promotion ([5]; proposed): proposed to act as tumor promoter

COS(C)(=O)=O [MMS, methyl methane sulphonate]
fold induction [6]: 20 to 150
SCC result in words [1]: inducible
SCC/10^4 cells ([1]; 0.001 %): 3.9 /10^4 cells
SCC/10^4 cells ([1]; 0.005 %): 11.4 /10^4 cells
SCC/10^4 cells ([1]; 0.01 %): 46.6 /10^4 cells
SCC/10^4 cells ([1]; 0.02 %): 129 /10^4 cells
ICC result in words [2]: inducible
ICC/10^5 cells ([2]; 0.001 %): 1.9 /10^5 cells
ICC/10^5 cells ([2]; 0.005 %): 14.4 /10^5 cells
ICC/10^5 cells ([2]; 0.01 %): 42.3 /10^5 cells
ICC/10^5 cells ([2]; 0.02 %): 62 /10^5 cells
viability at 17 h ([7]; yeast strain rs112, 0.001 %): 100%
viability at 17 h ([7]; yeast strain rs112, 0.005 %): 97%
viability at 17 h ([7]; yeast strain rs112, 0.01 %): 87%
viability at 17 h ([7]; yeast strain rs112, 0.02 %): 35%

O=[N+]([O-])c1cc[n+]([O-])c2ccccc12 [NQO, 4-nitroquinoline-N-oxide]
fold induction [6]: 20 to 150
SCC result in words [1]: inducible
SCC/10^4 cells ([1]; 0.1 μg/ml): 16.9 /10^4 cells
SCC/10^4 cells ([1]; 0.5 μg/ml): 19.0 /10^4 cells
SCC/10^4 cells ([1]; 2 μg/ml): 55.6 /10^4 cells
ICC result in words [2]: inducible
ICC/10^5 cells ([2]; 0.1 μg/ml): 57.4 /10^5 cells
ICC/10^5 cells ([2]; 0.5 μg/ml): 93 /10^5 cells
ICC/10^5 cells ([2]; 2 μg/ml): 106 /10^5 cells
viability at 17 h ([7]; yeast strain rs112, 0.1 μg/ml): 84%
viability at 17 h ([7]; yeast strain rs112, 0.5 μg/ml): 74%
viability at 17 h ([7]; yeast strain rs112, 2 μg/ml): 13.3%

CCOC(N)=O [Urethane]
SCC/10^4 cells ([1]; 10 mg/ml): 1.9 /10^4 cells
SCC/10^4 cells ([1]; 20 mg/ml): 4.8 /10^4 cells
SCC/10^4 cells ([1]; 40 mg/ml): 5.3 /10^4 cells
ICC/10^5 cells ([2]; 10 mg/ml): 0.66 /10^5 cells
ICC/10^5 cells ([2]; 20 mg/ml): 0.40 /10^5 cells
ICC/10^5 cells ([2]; 40 mg/ml): 0.78 /10^5 cells
viability at 17 h ([7]; yeast strain rs112, 10 mg/ml): 107%
viability at 17 h ([7]; yeast strain rs112, 20 mg/ml): 51%
viability at 17 h ([7]; yeast strain rs112, 40 mg/ml): 10%
Ames Assay result (Salmonella typhimurium): negative
SCE assay result (mammalian cells [3]): negative
chromosomal aberration assay result (mammalian cells [4]): negative
carcinogenicity (mice): very effective in producing lung as well as skin tumors in mice
carcinogenicity [5]: known carcinogens

C=CCc1ccc(O)c(OC)c1 [eugenol]
SCC result in words [1]: test positive
